This is an account of results in article PMC11073428, “The activity of pyrazolo[4,3-e][1,2,4]triazine and pyrazolo[4,3-e]tetrazolo[1,5-b][1,2,4]triazine sulphonamide derivatives in monolayer and spheroid breast cancer cell cultures” (Journal of Enzyme Inhibition and Medicinal Chemistry, 2024).

The structures appear in SMILES notation. Where two headings read alike, the source gives them in different places.

The test system of one series is MCF-7 spheroids. The experiment in a line: 3D spheroid culture, MCF-7. Type of series: cell-based, human. The note with it: 0.25 µM and 0.5 µM. How it is done:
(§1) The 3D cell culture was carried out with 6-Well Bio-Assembler Kit in accordance with the manufacturer’s instructions (Greiner Bio-One GmbH, Frickenhausen, Germany). First, MCF-7 and MDA-MB-231 were cultured in 2D using procedure and supplied to 80% confluency and treated with nanoshuttle at concentration of 1 µL/10 000 cell and incubated overnight. Following incubation, the medium was removed, and the cells were detached by trypsin–EDTA solution and resuspended in DMEM. The cells were counted using Scepter 2.0 Handheld Automated Cell Counter (Merck, Darmstadt, Germany) and plated at the concentration 1 × 10^6 cells per well in six-well plate. Then, cells were gently tilted in the flask to evenly distribute the nanoparticle and incubated (37 °C, 5% CO2, 95–98% humidity) for 1 h with magnet on the top of the plate. The cells self-assemble to spheroids. The obtained 3D cell culture was incubated until analysis.
(§2) The visualisation of the morphological changes in 3D cell culture of MCF-7 and MDA-MB-231 was evaluated using microscope (Nikon Eclipse Ti, Tokyo, Japan).
(§3) The mean ± standard deviation (SD) for all data is presented. One-way and two-way analysis of variance (ANOVA) was conducted followed by Dunnett’s test. GraphPad 8.0.1 Prism software (GraphPad Software, San Diego, CA) was used for calculation. The analysis of spheroids area was carried out using ImageJ software from the NIH (Bethesda, MD).

The next series concerns MDA-MB-231 spheroids. Put plainly: 3D spheroid culture, MDA-MB-231. In kind it is cell-based, human. The note with it: 0.25 µM and 0.5 µM. Here is the method:
as §1, §2, §3

The next series concerns Bax in MDA-MB-231 cells. Put plainly: Anti-Bax antibody flow cytometry, MDA-MB-231. The note with it: MDA-MB-231, 24 h. In kind it is cell-based, human. How it is done:
(§4) To evaluate the molecular mechanism of induction of apoptosis of tested compounds, the level of p53, NF-κB, mTOR, Bax, and beclin-1 was measured using appropriate antibody according to the manufacturer’s instruction. In brief, tryspinised cells were centrifuged, then supernatant was discarded, and cells were suspended in 4% FA (formaldehyde). Prepared samples were incubated 15 min at RT. Following incubation, the 2.5 mL PBS was added to each sample and centrifuged. Then, supernatant was discarded, and cells were resuspended in 90% ice-cold methanol to perform permeabilisation and left for 1 h in ice. To remove methanol, cells were rinsed with excess PBS by centrifugation. Following centrifugation, the supernatant was discarded. Then, cells were resuspended in 100 µL of appropriate diluted (1:100 in PBS) antibody conjugate (p53 (7F5) Rabbit mAb – Alexa Fluor 488 Conjugate #5429 Cell Signalling Technology, Danvers, MA; NF-κB p65 (D14E12) XP Rabbit mAb – Alexa Fluor 647 Conjugate #8801 Cell Signalling Technology, Danvers, MA; mTOR (7C10) Rabbit mAB – Alexa Fluor 647 #5048 Cell Signalling Technology, Danvers, MA; FITC Anti-Bax antibody (T22-A) #ab139543, Abcam, Cambridge, UK) and incubated 1 h in the dark at RT. Afterwards, cells were washed by centrifugation in 2 mL of incubation buffer. Finally, supernatant was removed and 300 µL PBS was added to each sample and pipetted. The analysis was performed by flow cytometry (BD FACSCanto II, Becton Dickinson Biosciences Systems, San Jose, CA) using FACSDiva software ver. 6.1.3.
Background: A flow cytometer gives signals particle by particle.

For the next series, the system named is beclin-1 in MCF-7 cells. Put plainly: Anti-beclin-1 antibody flow cytometry, MCF-7. Type of series: cell-based, human. The note with it: MCF-7, 0.5 µM, 24 h. Here is the method: (§5) The fixation and permeabilisation were performed as described above. Cells were resuspended in 100 µL of diluted primary antibody (1:100 in PBS, anti-beclin 1 antibody (2A4) #ab114071, Abcam, Cambridge, UK) and incubated 30 min in the dark at RT. The cells were washed three times by centrifugation in PBS. Then to each probe, 100 µL of diluted fluorochrome-labelled secondary antibody (1:100 in PBS; goat anti-mouse IgG H&L – Alexa Fluor 488 #ab150113, Abcam, Cambridge, UK) was added and incubated 30 min in dark at RT. Then, cells were rinsed with 2.5 mL PBS. In the last step, supernatant was discarded and cells were resuspended in 300 µL PBS and pipetted. The analysis was carried out by flow cytometry.

Series [1] concerns MDA-MB-231 breast cancer cells. Put plainly: Apoptosis, annexin V-FITC/PI flow cytometry, MDA-MB-231. In kind it is cell-based, human. Conditions: 24 h; for early and late apoptotic cells: MDA-MB-231, 0.5 µM. How it is done:
(§6) The analysis was performed using flow cytometry Apoptosis Detection Kit II (BD Biosciences, San Diego, CA) as described previously.

Series [2] has as its system MDA-MB-231 breast cancer cells. The arrangement: method as in PMID 27488500. Conditions: 24 h incubation; read-out: IC50 in MDA-MB-231 (previous studies); cited from earlier work.
For series [3], the system named is MCF-7 breast cancer cells. Put plainly: Apoptosis, annexin V-FITC/PI flow cytometry, MCF-7. Type of series: cell-based, human. Conditions: 24 h; for early and late apoptotic cells: MCF-7, 0.5 µM. Here is the method: as §6
For series [4], the system named is beclin-1 in MDA-MB-231 cells. Put plainly: Anti-beclin-1 antibody flow cytometry, MDA-MB-231. In kind it is cell-based, human. Conditions: MDA-MB-231, 0.5 µM, 24 h. How it is done: as §5
Series [5] deals with MCF-10A normal breast cells. The arrangement: method as in PMID 32575817. Conditions: 24 h incubation; read-out: IC50 in MCF-10A (previous studies); cited from earlier work.
Series [6] concerns MCF-7 breast cancer cells. The arrangement: method as in PMID 27488500. Conditions: 24 h incubation; read-out: IC50 in MCF-7 (previous studies); cited from earlier work.
In the next series the test system is Bax in MCF-7 cells. Put plainly: Anti-Bax antibody flow cytometry, MCF-7. Conditions: MCF-7, 24 h. Type of series: cell-based, human. How it is done: as §4
In series [7] the test system is MDA-MB-231 breast cancer cells. The experiment in a line: MTT viability assay, MDA-MB-231. The note with it: for IC50: Homo sapiens, MDA-MB-231, 24 h, read-out: Cytotoxicity IC50 MDA-MB-231. (Formazan colour is commonly taken as a measure of viable cells.)
Procedure: (§7) Following 24-h incubation with tested compounds, the medium was discarded from the cell cultures. Then, into each well with cells was added 1 mL of PBS and 50 µL of MTT solution (5 mg per mL). Cells were incubated at 37 °C and 5% CO2 in humidified atmosphere for a defined time appropriate for each cell line. After incubation, the solution above the cells was removed and obtained purple formazan crystals were dissolved in 1 mL DMSO. The absorbance was read at OD = 570 nm on Evolution 201 Spectrophotometer (Thermo Scientific, Waltham, MA).
The subject of series [8] is MCF-7 breast cancer cells. Put plainly: MTT viability assay, MCF-7. Conditions: for IC50: Homo sapiens, MCF7, 24 h, read-out: Cytotoxicity IC50 MCF-7.
Procedure: as §7
The nature of a further series: in vitro. Conditions: human.
The mark [9] stands for this setting: ratio of cytotoxicity, 3a vs 2a, 3b vs 2b.

For `N.N.[Cl][Pt][Cl]` [Cisplatin, cisplatin, reference compound], the “effect on spheroid formation (in words)” value in the series with MCF-7 spheroids and with MDA-MB-231 spheroids was “slightly affected growth of spheroids” each time. The “number of cells with active Bax (in words)” value in the series on Bax in MDA-MB-231 cells and in the series with Bax in MCF-7 cells was “at the control level” in each case. The results for the “cells with active beclin-1” value (in the series with beclin-1 in MCF-7 cells; in series [4]) were 4.1 ± 0.5% and 3.6 ± 0.7%, respectively. In addition, the figures for the “early and late apoptotic cells” value in series [1] and in [3] were 7.6 ± 0.6% and 7.1 ± 0.9%, respectively. Also, the IC50 (as a rule, the concentration that gives 50% inhibition) was 82 µM in series [2], over 100 µM in series [5] and 93 µM in series [6].

With `Cc1nn(-c2ccc(S(=O)(=O)N[C@H](CO)Cc3ccccc3)cc2)c2nnc(S(C)(=O)=O)nc12` [Compound 2a, (S)-N-(1-Hydroxy-3-phenylpropan-2-yl)-4-(3-methyl-5-(methylsulfonyl)-1H-pyrazolo[4,3-e][1,2,4]triazin-1-yl)benzenesulfonamide], the melting point (commonly the temperature, or range, at which the solid turns liquid) lay in the range of 130 to 134 °C. In addition, the IC50 in [7] is 9.2 ± 0.78 µM. For the same molecule, in series [8], the IC50 is 6 ± 0.38 µM. This molecule registered an IC50 at 24 h in “in vitro” of over 10 µM.

For `Cc1nn(-c2ccc(S(=O)(=O)N[C@@H](CO)Cc3ccccc3)cc2)c2nnc(S(C)(=O)=O)nc12` [Compound 2b, (R)-N-(1-Hydroxy-3-phenylpropan-2-yl)-4-(3-methyl-5-(methylsulfonyl)-1H-pyrazolo[4,3-e][1,2,4]triazin-1-yl)benzenesulfonamide], the melting point is 124 to 128 °C. In addition, the “effect on spheroid formation (in words)” value in the series with MCF-7 spheroids was “slower formation of spheroids compared to untreated cells”. In addition, in the series with MDA-MB-231 spheroids, the “effect on spheroid formation (in words)” value is recorded as “slower formation of spheroids compared to untreated cells”. Moreover, the IC50 in series [7] stood at 7.8 ± 0.53 µM. In [1] (MDA-MB-231, 0.25 µM), the apoptotic cells was 5.7 ± 0.6%. The “early and late apoptotic cells” value in [1] is on record as 5.8 ± 1.8%. The IC50 in series [8] was 5.5 ± 0.39 µM. In “in vitro”, this molecule returned an IC50 at 24 h of over 10 µM. Further, the apoptotic cells in series [3] (MCF-7, 0.25 µM) is listed as 9.8 ± 1.2%. Besides, the “early and late apoptotic cells” value in [3] was found to be 14.6 ± 1.7%.

As to `Cc1nn(-c2ccc(S(=O)(=O)N[C@H](CO)Cc3ccccc3)cc2)c2nn3nnnc3nc12` [Compound 3a, (S)-N-(1-Hydroxy-3-phenylpropan-2-yl)-4-(7-methyl-5H-pyrazolo[4,3-e]tetrazolo[1,5-b][1,2,4]triazin-6-yl)benzenesulfonamide], the melting point is 172 to 176 °C. Besides, the IC50 in series [7] was determined as 0.71 ± 0.14 µM. Besides, in [7] (setting [9]), the “times stronger than the corresponding sulphonyl derivative (2a or 2b), MDA-MB-231” value is about 13 times. Further, in series [8], the IC50 was 0.35 ± 0.08 µM. In series [8] (setting [9]), the “times stronger than the corresponding sulphonyl derivative (2a or 2b), MCF-7” value is recorded as 17 times. The molecule also yielded an IC50 at 24 h in “in vitro” of 3.5 ± 0.18 µM.
